What was measured:
ERα = biological target: T1, ERα (Homo sapiens, UniProt P03372); assay: Degradation effect on ERα in MCF-7 cells (ERα Duoset ELISA); assay type: cell-based; conditions: MCF7; compound at 3 μM, relative to positive control AZD-9496 at 3 μM set to 100%
T1 construct: host or cells: MCF-7
T1 sequence (P03372 1-595): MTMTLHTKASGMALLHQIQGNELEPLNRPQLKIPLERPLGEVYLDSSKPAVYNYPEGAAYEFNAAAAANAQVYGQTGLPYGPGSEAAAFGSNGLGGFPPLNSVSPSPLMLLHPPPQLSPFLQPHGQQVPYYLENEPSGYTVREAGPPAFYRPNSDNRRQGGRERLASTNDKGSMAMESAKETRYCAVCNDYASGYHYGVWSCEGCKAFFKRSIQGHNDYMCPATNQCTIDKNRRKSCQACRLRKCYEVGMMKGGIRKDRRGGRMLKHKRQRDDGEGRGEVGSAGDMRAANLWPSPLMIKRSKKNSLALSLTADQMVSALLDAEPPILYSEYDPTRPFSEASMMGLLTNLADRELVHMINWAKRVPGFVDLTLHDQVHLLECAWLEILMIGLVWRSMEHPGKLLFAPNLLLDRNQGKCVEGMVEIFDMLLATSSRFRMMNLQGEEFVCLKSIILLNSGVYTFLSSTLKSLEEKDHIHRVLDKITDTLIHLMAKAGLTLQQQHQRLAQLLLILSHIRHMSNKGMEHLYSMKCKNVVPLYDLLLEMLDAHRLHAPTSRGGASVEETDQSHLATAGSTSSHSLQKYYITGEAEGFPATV
Procedure: In order to determine the degradation effect on ER induced by the compound of present invention, the following method was used to determine the degradation effect of the compounds of the present invention on ER.
MCF-7 cell line (TChu 74, Cell Bank of Chinese Academy of Sciences typical culture preservation Committee)
ERα Duoset Kit (#DYC5715E, R&D System)
MCF-7 cells well incubated in DMEM/F-12 medium containing 10% FBS.
On the first day of the experiment, MCF-7 cells were resuspended in DMEM/F-12 medium containing 10% FBS treated by activated carbon, then inoculated into a 48-well plate with a density of 50,000 cells/well and incubated for 22-24 hours.
On the second day of the experiment, the test compound was diluted with medium and added to a 48-well plate. The ERα-capture antibody was diluted to 1 μg/ml with PBS, and added with 100 μl/well to a 96-well plate at 100 μl/well. The plate was sealed and coated overnight at room temperature.
On the third day of the experiment, the coated 96-well plate was washed twice with PBS, added with a sealing solution (1% BSA in PBS) at 110 μl/well and sealed for 1 hour at room temperature. The 48-well plate was washed once and the residual liquid was removed. Then, 60 μl of lysis buffer (6 M urea, 1 mM EDTA, 0.5% Triton X-100, 1 mM PMSF, Protease Inhibitor cocktail) was added to each well. After lysis on ice for 15 minutes, the diluent (1 mM EDTA, 0.5% TritonX-100 dissolved in PBS) was added. The cell-diluted lysate was transferred to a 96-well plate at 100 μl/well, then the plate was incubated at room temperature for 2 hours. The diluted primary antibody was added after the plate was washed 4 times with a washing liquid (PBST). After incubation for 1 hour, the 96-well plate was washed 4 times, and the second antibody was added, then the plate was incubated for 30 minutes. After the plate was washed with a washing liquid, TMB chromogenic solution was added and incubated for 15 minutes. The reaction was stopped by the addition of 1 M H2SO4, then the light absorption at a wavelength of 450 nm was read. The degradation effect of the compound AZD9496 at 3 μM was set to 100%, the Emax of other compounds=(ODnegative control−ODcompound 3 μM)/(ODnegative control−ODAZD9496 3 μM)×100%, and the negative control was a well with DMSO.

ER (estrogen receptor) = biological target: T2, ER (estrogen receptor) (Homo sapiens, UniProt P03372); assay: Inhibition of the binding of estrogen (E) to estrogen receptor (ER), MCF-7/ERE-luciferase reporter cells; assay type: cell-based; conditions: MCF-7/ERE-luciferase cells, 0.1 nM estradiol, 24 hours, chemiluminescence; read-out: IC50 value of inhibition effect on the binding of E to ER
T2 construct: MCF-7/ERE-luciferase monoclonal cells were selected by transfection of MCF-7; host or cells: MCF-7/ERE-luciferase (only the ERE-luciferase reporter was transfected)
T2 sequence (P03372 1-595): T1 sequence (P03372 1-595)
In short: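 MCF-7 cells stably carrying an ERE-luciferase reporter, grown in charcoal-stripped FBS medium, were treated with compound plus 0.1 nM estradiol for 24 h at 37 °C. Luciferase chemiluminescence was then read and plotted against log compound concentration to derive IC50.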

| Emax at 3 µM (ERα) | IC50 (ER (estrogen receptor)) | SMILES |
| --- | --- | --- |
| 115% | 2.11 nM | CCc1ccc(N2C(C)Cc3cc(-c4cnn(C)c4)ccc3C2c2ccc(/C=C/C(=O)O)cc2)cc1 [Example 1, (E)-3-(4-((1R,3R/1S,3S)-2-(4-Ethylphenyl)-3-methyl-6-(1-methyl-1H-pyrazol-4-yl)-1,2,3,4-tetrahydroisoquinolin-1-yl)phenyl)acrylic acid] |
| 118% | 1.79 nM | CCn1cc(-c2ccc3c(c2)CC(C)N(c2ccc(C(C)C)cc2)C3c2ccc(/C=C/C(=O)O)cc2)cn1 [Example 7, (E)-3-(4-((1R,3R/1S,3S)-6-(1-Ethyl-1H-pyrazol-4-yl)-2-(4-isopropylphenyl)-3-methyl-1,2,3,4-tetrahydroisoquinolin-1-yl)phenyl)acrylic acid] |
| 129% | 0.39 nM | CCn1cc(-c2ccc3c(c2)C[C@@H](C)N(c2ccc(C(C)C)cc2)[C@@H]3c2ccc(/C=C/C(=O)O)cc2)cn1 [Example 8, (E)-3-(4-((1R,3R)-6-(1-Ethyl-1H-pyrazol-4-yl)-2-(4-isopropylphenyl)-3-methyl-1,2,3,4-tetrahydroisoquinolin-1-yl)phenyl)acrylic acid] |
| 134% | 0.32 nM | C[C@@H]1Cc2cc(-c3cnn(C)c3)ccc2[C@@H](c2ccc(/C=C/C(=O)O)cc2)N1c1ccc(C2CC2)cc1 [Example 11, (E)-3-(4-((1R,3R)-2-(4-Cyclopropylphenyl)-3-methyl-6-(1-methyl-1H-pyrazol-4-yl)-1,2,3,4-tetrahydroisoquinolin-1-yl)phenyl)acrylic acid] |
| 147% | 0.25 nM | CCn1cc(-c2ccc3c(c2)C[C@@H](C)N(c2ccc(C4CC4)cc2)[C@@H]3c2ccc(/C=C/C(=O)O)cc2)cn1 [Example 14, (E)-3-(4-((1R,3R)-2-(4-Cyclopropylphenyl)-6-(1-ethyl-1H-pyrazol-4-yl)-3-methyl-1,2,3,4-tetrahydroisoquinolin-1-yl)phenyl)acrylic acid] |
| 112% | 0.52 nM | CC(C)c1ccc(N2[C@H](c3ccc(/C=C/C(=O)O)cc3)c3ccc(-c4cnn(C)c4)cc3C[C@H]2C)cc1 [Example 42, (E)-3-(4-((1R,3R)-2-(4-Isopropylphenyl)-3-methyl-6-(1-methyl-1H-pyrazol-4-yl)-1,2,3,4-tetrahydroisoquinolin-1-yl)phenyl)acrylic acid] |
